The target of experiment [1] is T1, recombinant BRD4 BD2 (Homo sapiens, UniProt O60885).
T1 construct: for recombinant BRD4 BD1 and BRD4 BD2 proteins
In words: Competitive fluorescence-polarization (FP) binding assay, BRD4 BD2. How it is done:
Fluorescence Polarization (FP) competitive binding studies were carried out using a FAM labeled fluorescent probe, see, e.g., Cpd. No. 350 of US 2014/0256706, to determine binding affinities of representative Compounds of the Disclosure for recombinant BRD4 BD1 and BRD4 BD2 proteins. Equilibrium dissociation constants (Kd) values of the fluorescent probe to BRD4 BD1 and BD2 proteins were determined from protein saturation experiments by monitoring the total fluorescence polarization of mixtures composed with the fluorescent probe at a fixed concentration and proteins with increasing concentrations up to full saturation. Serial dilutions of testing proteins were mixed with the fluorescent probe to a final volume of 200 μl in the assay buffer (100 mM phosphate buffer, pH=6.5, 0.01% Triton X-100 (Sigma, 282103) being added right before assays). Final fluorescent probe concentration was 1.5 nM for both proteins. Plates were incubated at room temperature for 30 minutes with gentle shaking to assure equilibrium. FP values in millipolarization units (mP) were measured using the Infinite M-1000 plate reader (Tecan U.S., Research Triangle Park, N.C.) in Microfluor 1 96-well, black, round-bottom plates (Thermo Scientific, Waltham, Mass.) at an excitation wavelength of 485 nm and an emission wavelength of 530 nm. Kd values of the fluorescent probe, which were calculated by fitting the sigmoidal dose-dependent FP increases as a function of protein concentrations using Graphpad Prism 6.0 software (Graphpad Software, San Diego, Calif.), are 5.5 and 3.0 nM to BDR4 BD1 and 2, respectively.
The IC50 and Ki values of compounds were determined in a competitive binding experiment. See US 2014/0256706. Mixtures of 10 μl of the tested compounds in assay buffer with 40% Ethylene Glycol and 190 μl of preincubated protein/probe complex solution in the assay buffer (100 mM potassium phosphate, pH 6.5, 0.01% Triton X-100) were added into assay plates which were incubated at room temperature for 30 minutes with gentle shaking. Final concentrations of proteins were 10 and 6 nM in assays for BRD4 BD1 and BD2, respectively. Final probe concentration is 1.5 nM in both assays. Negative controls containing protein/probe complex only (equivalent to 0% inhibition), and positive controls containing only free probes (equivalent to 100% inhibition), were included in each assay plate. FP values were measured as described above. IC50 values were determined by nonlinear regression fitting of the competition curves. Instead of being calculated from IC50 values as described before. Ki values of competitive inhibitors were obtained directly by nonlinear regression fitting as well, based upon the Kd values of the probe to different proteins, and concentrations of the proteins and probes in the competitive assays (US 2014/0256706; Wang, FEBS Lett. 360:111 (1995); Zhang et al., Analytical Biochemistry, 331:138 (2004)).
Representative compounds in Table 5 were evaluated for their binding affinities to BRD4 BD1 and BD2 proteins using the Competitive Fluorescence-Polarization (FP) Assays described in Example 6, with the data included in Table 6.

For experiment [2], the system named is MOLM-13. In words: Cell growth inhibition, 4-day proliferation assay, MOLM-13. In kind it is cell-based. Particulars: Homo sapiens, MOLM-13, 96 h, read-out: Cell IC50 (nM) MOLM13.
The test system of experiment [3] is MDA-MB-231. Description: Cell growth inhibition, 4-day proliferation assay, MDA-MB-231. Particulars: Homo sapiens, MDA-MB-231, 96 h, read-out: Cell IC50 (nM) MDA-MB-231. Format: cell-based. The essentials:
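Cells seeded at 3,000-10,000/well, treated with serially diluted compounds 4 days at 37 °C, 5% CO2. Viability by WST-8 (10% v/v, 1-2 h, A450); readings normalized to DMSO-treated cells, IC50 by four-parameter nonlinear regression.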

Each structure is given as a SMILES string.

By IC50 is commonly meant the concentration needed to halve the response being measured. For the compound `Cc1c(C#Cc2cnn(CC(=O)O)c2)sc2c1C(c1ccc(Cl)cc1)=N[C@@H](C)c1nnc(C)n1-2` [Cpd. No. 14, (S)-2-(4-((4-(4-chlorophenyl)-3,6,9-trimethyl-6H-thieno[3,2-f][1,2,4]triazolo[4,3-a][1,4]diazepin-2-yl)ethynyl)-1H-pyrazol-1-yl)acetic acid], the values for the IC50 in experiment [1], in experiment [2] and in experiment [3] were 0.0123 µM, 964 nM and 965 nM, respectively.
For `Cc1c(C#CCO)sc2c1C(c1ccc(Cl)cc1)=NCc1nnc(C)n1-2` [Cpd. No. 9, 3-(4-(4-chlorophenyl)-3,9-dimethyl-6H-thieno[3,2-f][1,2,4]triazolo[4,3-a][1,4]diazepin-2-yl)prop-2-yn-1-ol] the same measures were 0.126 µM, 215 nM and 412 nM.
Consider `Cc1c(C#Cc2cccnc2)sc2c1C(c1ccc(Cl)cc1)=N[C@@H](C)c1nnc(C)n1-2` [Cpd. No. 4, (S)-4-(4-chlorophenyl)-3,6,9-trimethyl-2-(pyridin-3-ylethynyl)-6H-thieno[3,2-f][1,2,4]triazolo[4,3-a][1,4]diazepine], for which the IC50 in experiment [1] worked out at 0.0125 µM; in experiment [2], 10.5 ± 0.24 nM; in experiment [3] it was 2.63 ± 0.6 nM.
For `Cc1c(C#Cc2cccnc2)sc2c1C(c1ccc(Cl)cc1)=NCc1nnc(C)n1-2` [Cpd. No. 3, 4-(4-chlorophenyl)-3,9-dimethyl-2-(pyridin-3-ylethynyl)-6H-thieno[3,2-f][1,2,4]triazolo[4,3-a][1,4]diazepine] the same measures were 0.124 µM, 145 ± 13.7 nM and 151 ± 19 nM.
For `COCC#Cc1sc2c(c1C)C(c1ccc(Cl)cc1)=N[C@@H](C)c1nnc(C)n1-2` [Cpd. No. 15, (S)-4-(4-chlorophenyl)-2-(3-methoxyprop-1-yn-1-yl)-3,6,9-trimethyl-6H-thieno[3,2-f][1,2,4]triazolo[4,3-a][1,4]diazepine] the same measures were 0.0113 µM, 25.6 nM and 51.1 nM.
For `Cc1c(C#Cc2cncnc2)sc2c1C(c1ccc(Cl)cc1)=NCc1nnc(C)n1-2` [Cpd. No. 5, 4-(4-chlorophenyl)-3,9-dimethyl-2-(pyrimidin-5-ylethynyl)-6H-thieno[3,2-f][1,2,4]triazolo[4,3-a][1,4]diazepine] the same measures were 0.305 µM, 176 ± 25.5 nM and 214 ± 35.2 nM.
On to `Cc1c(C#Cc2cncnc2)sc2c1C(c1ccc(Cl)cc1)=N[C@@H](C)c1nnc(C)n1-2` [Cpd. No. 6, (S)-4-(4-chlorophenyl)-3,6,9-trimethyl-2-(pyrimidin-5-ylethynyl)-6H-thieno[3,2-f][1,2,4]triazolo[4,3-a][1,4]diazepine], for which the IC50 in experiment [1] is 0.016 µM; in experiment [2] it was 15.6 ± 1.7 nM; in experiment [3] it was 17.8 ± 19 nM.
For `Cc1c(C#Cc2ccncc2)sc2c1C(c1ccc(Cl)cc1)=N[C@@H](C)c1nnc(C)n1-2` [Cpd. No. 8, (S)-4-(4-chlorophenyl)-3,6,9-trimethyl-2-(pyridin-4-ylethynyl)-6H-thieno[3,2-f][1,2,4]triazolo[4,3-a][1,4]diazepine] the same measures were 0.0104 µM, 13.5 ± 0.8 nM and 64.5 ± 22.7 nM.
In the case of `Cc1c(C#Cc2ccnn2C)sc2c1C(c1ccc(Cl)cc1)=N[C@@H](C)c1nnc(C)n1-2` [Cpd. No. 17, (S)-4-(4-chlorophenyl)-3,6,9-trimethyl-2-((1-methyl-1H-pyrazol-5-yl)ethynyl)-6H-thieno[3,2-f][1,2,4]triazolo[4,3-a][1,4]diazepine], the IC50 in experiment [1] worked out at 0.0144 µM; in experiment [2], 23.7 nM; in experiment [3], 14.6 nM.
For `Cc1c(C#Cc2ccncc2)sc2c1C(c1ccc(Cl)cc1)=NCc1nnc(C)n1-2` [Cpd. No. 7, 4-(4-chlorophenyl)-3,9-dimethyl-2-(pyridin-4-ylethynyl)-6H-thieno[3,2-f][1,2,4]triazolo[4,3-a][1,4]diazepine] the same measures were 1.67 µM, 144 ± 16.3 nM and 660 ± 83.6 nM.
